#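 Grown in 96-well plates, cells were treated for 48 hours with each compound at five concentrations. Insufficient inhibition: endpoint recorded as highest concentration tested. At the GI50, growth is halved.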 Activity calls are given as the source filed them. Cut-off read from the data, not from the text of the source: active = GI50 up to about 1.1 µM and inactive = higher.
# Experiments:
# Assay in all cases: NCI anticancer screen, dose series, 48 h
# KM-20L2 = system: KM-20L2
# LXFL 529 = system: LXFL 529
# M19-MEL = system: M19-MEL
# DMS-273 = system: DMS-273
# XF498 = system: XF498
# DMS-114 = system: DMS-114
# SNB-78 = system: SNB-78
# RXF 631 = system: RXF 631
# HOP-18 = system: HOP-18
Structure (SMILES),GI50 (KM-20L2),GI50 (LXFL 529),GI50 (M19-MEL),GI50 (DMS-273),GI50 (XF498),GI50 (DMS-114),GI50 (SNB-78),GI50 (RXF 631),GI50 (HOP-18)
O=C1Nc2ccc(Cl)c(I)c2C1=O,19.7 µM (inactive),16.8 µM (inactive),11.7 µM (inactive),16.5 µM (inactive),18.3 µM (inactive),17.5 µM (inactive),–,–,–
NC(=S)N/N=C1/CN(c2ccc(Cl)c(Cl)c2)CC(=O)C1c1nc2ccccc2s1 (stereo not given),> 100 µM (inactive),37.8 µM (inactive),> 100 µM (inactive),> 100 µM (inactive),> 100 µM (inactive),51.8 µM (inactive),> 100 µM (inactive),–,–
COC(=O)CCC12CCC(=O)C1[C@@H](C(=O)OC)C[C@H]2C(=O)OC (stereo not given in full),> 100 µM (inactive),> 100 µM (inactive),> 100 µM (inactive),> 100 µM (inactive),> 100 µM (inactive),> 100 µM (inactive),> 100 µM (inactive),> 100 µM (inactive),> 100 µM (inactive)
C#CCN(N=O)C(=O)ON1C(=O)CCC1=O,> 100 µM (inactive),> 100 µM (inactive),> 100 µM (inactive),> 100 µM (inactive),–,> 100 µM (inactive),> 100 µM (inactive),–,> 100 µM (inactive)
Cc1ccccc1C(C#N)C(=O)C(=O)Nc1nc([N+](=O)[O-])cs1 (stereo not given),> 100 µM (inactive),> 100 µM (inactive),> 100 µM (inactive),–,> 100 µM (inactive),> 100 µM (inactive),> 100 µM (inactive),> 100 µM (inactive),> 100 µM (inactive)
CCc1ccccc1NC(=O)CCc1nnc(S)[nH]1,> 100 µM (inactive),> 100 µM (inactive),> 100 µM (inactive),> 100 µM (inactive),> 100 µM (inactive),> 100 µM (inactive),> 100 µM (inactive),> 100 µM (inactive),–
CCN(CC)CCSc1c2ccccc2nc2c(OC)ccc(OC)c12,3.39 µM (inactive),2.3 µM (inactive),8 µM (inactive),5.08 µM (inactive),2.42 µM (inactive),1.63 µM (inactive),5.31 µM (inactive),2.93 µM (inactive),–
CS(=O)(=O)OCCN(CCOS(C)(=O)=O)c1ccc(/C=N/c2ccc3oc(=O)ccc3c2)cc1,2.64 µM (inactive),13.1 µM (inactive),13.2 µM (inactive),–,–,0.714 µM (active),2.12 µM (inactive),–,–
Oc1ccc(O)c(-n2cccn2)c1-n1cccn1,> 100 µM (inactive),> 100 µM (inactive),35.8 µM (inactive),> 100 µM (inactive),> 100 µM (inactive),> 100 µM (inactive),> 100 µM (inactive),–,–
CCOC(=O)C1C2CCC(C2)C1(CCl)C(=O)OCC (stereo not given),> 100 µM (inactive),> 100 µM (inactive),> 100 µM (inactive),> 100 µM (inactive),–,> 100 µM (inactive),–,> 100 µM (inactive),> 100 µM (inactive)
CC1=CCCC(OC(N)=O)C1 (stereo not given),> 100 µM (inactive),> 100 µM (inactive),> 100 µM (inactive),> 100 µM (inactive),> 100 µM (inactive),–,> 100 µM (inactive),> 100 µM (inactive),> 100 µM (inactive)

# Reference: ChEMBL document CHEMBL1201862, “PubChem BioAssay data set” (2004)
